According to patent US20230138177A1 (priority 2020, published 2023):

What was measured:
DYRK1B [1] = molecular target: T1, DYRK1B (Homo sapiens, UniProt Q9Y463, P333A); assay type: cell-based
T1 construct: expressed in transfected cells; host or cells: glioma cells (U87)

DYRK1B [2] = molecular target: T2, DYRK1B (Homo sapiens, UniProt Q9Y463); assay type: cell-based; set-up: expressed in transfected cells; host or cells: glioma cells (U87)
DYRK1B [3] = molecular target: T2, DYRK1B; assay type: biochemical; set-up: expressed in transfected cells; host or cells: HEK293T or U87 cells; immunoprecipitate used in vitro; settings: FLAG-DYRK1B from cells treated with harmine 10 μM or CX-4945 1 μM for 8 hours
DYRK1A = assay type: cell-based, human
DYRK1B [4] = assay type: cell-based, human
VCB-CUL2 complex = assay type: binding
HIF2α = assay type: cell-based, human
GSK3β [5] = assay type: cell-based, human
GSK3β, sequence (P49841 whole entry): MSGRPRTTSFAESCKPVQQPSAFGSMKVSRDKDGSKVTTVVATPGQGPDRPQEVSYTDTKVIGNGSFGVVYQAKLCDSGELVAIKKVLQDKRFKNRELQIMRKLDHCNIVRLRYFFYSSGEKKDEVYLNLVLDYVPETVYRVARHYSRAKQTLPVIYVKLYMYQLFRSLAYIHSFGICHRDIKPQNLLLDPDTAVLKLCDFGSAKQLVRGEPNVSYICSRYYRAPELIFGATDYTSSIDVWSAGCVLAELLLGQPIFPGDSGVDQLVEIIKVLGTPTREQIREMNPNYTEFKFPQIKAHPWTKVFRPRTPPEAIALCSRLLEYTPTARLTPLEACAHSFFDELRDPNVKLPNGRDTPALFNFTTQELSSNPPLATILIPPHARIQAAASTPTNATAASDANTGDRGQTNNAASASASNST

GSK3β [6] = assay type: biochemical, human

T2 sequence (Q9Y463 whole entry): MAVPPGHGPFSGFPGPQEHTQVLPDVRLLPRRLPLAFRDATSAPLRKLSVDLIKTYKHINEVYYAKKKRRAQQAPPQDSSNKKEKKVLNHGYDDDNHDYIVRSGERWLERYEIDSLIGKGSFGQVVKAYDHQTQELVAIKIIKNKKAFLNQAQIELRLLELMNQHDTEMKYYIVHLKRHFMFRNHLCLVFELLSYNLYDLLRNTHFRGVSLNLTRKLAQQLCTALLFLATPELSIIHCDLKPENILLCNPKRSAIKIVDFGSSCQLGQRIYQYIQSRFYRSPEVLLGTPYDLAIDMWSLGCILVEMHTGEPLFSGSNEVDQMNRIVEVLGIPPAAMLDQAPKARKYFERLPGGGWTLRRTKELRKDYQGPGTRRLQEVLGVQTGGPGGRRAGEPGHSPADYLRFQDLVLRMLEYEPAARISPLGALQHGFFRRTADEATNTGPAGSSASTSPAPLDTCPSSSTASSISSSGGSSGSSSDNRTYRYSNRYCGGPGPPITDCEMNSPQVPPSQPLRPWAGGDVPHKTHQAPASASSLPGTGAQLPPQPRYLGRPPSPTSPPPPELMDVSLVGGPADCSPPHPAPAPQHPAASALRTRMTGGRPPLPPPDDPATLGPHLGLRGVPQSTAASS
T1 sequence (Q9Y463 whole entry P333A): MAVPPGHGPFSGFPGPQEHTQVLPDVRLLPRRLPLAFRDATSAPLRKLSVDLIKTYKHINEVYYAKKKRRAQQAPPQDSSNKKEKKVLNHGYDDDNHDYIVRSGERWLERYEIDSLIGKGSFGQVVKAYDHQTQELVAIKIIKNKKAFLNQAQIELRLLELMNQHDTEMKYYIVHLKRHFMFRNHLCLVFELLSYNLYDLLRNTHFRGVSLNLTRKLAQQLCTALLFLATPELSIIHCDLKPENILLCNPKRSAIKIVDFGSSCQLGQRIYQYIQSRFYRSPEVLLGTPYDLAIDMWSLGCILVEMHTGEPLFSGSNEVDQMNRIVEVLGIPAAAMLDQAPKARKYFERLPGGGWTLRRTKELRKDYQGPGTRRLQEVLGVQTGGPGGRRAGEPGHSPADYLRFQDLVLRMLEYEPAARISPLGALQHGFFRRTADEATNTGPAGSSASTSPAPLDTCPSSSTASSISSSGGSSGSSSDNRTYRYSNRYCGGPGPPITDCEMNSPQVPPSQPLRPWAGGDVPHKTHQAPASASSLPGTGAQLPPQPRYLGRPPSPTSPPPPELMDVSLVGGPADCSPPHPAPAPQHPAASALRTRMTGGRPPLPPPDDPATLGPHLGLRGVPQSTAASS

COC(=O)CNC(=O)C(=O)OC [DMOG, dimethyloxalylglycine]
prolyl hydroxylation of DYRK1B-P333A (DYRK1B [1]): caused loss
tyrosine auto-phosphorylation of DYRK1B-P333A (DYRK1B [1]): caused loss
prolyl hydroxylation of DYRK1B (DYRK1B [2]): caused loss
tyrosine autophosphorylation of DYRK1B (DYRK1B [2]): caused loss

COc1ccc2c(c1)[nH]c1c(C)nccc12 [harmine]
prolyl hydroxylation of DYRK1B (DYRK1B [2]): failed to perturb
tyrosine autophosphorylation of DYRK1B (DYRK1B [2]): severely impairing
phosphorylation of the ID2-T27 substrate (DYRK1B [3]): severely impairing

CoCl2
prolyl hydroxylation of DYRK1A (DYRK1A): abolished
tyrosine autophosphorylation of DYRK1A (DYRK1A): abolished
prolyl hydroxylation of DYRK1B (DYRK1B [4]): abolished
tyrosine autophosphorylation of DYRK1B (DYRK1B [4]): abolished
ID2-mediated dissociation of CUL2 from VCB (VCB-CUL2 complex): elicited
VHL-HIF2α interaction (VCB-CUL2 complex): disrupted
proline hydroxylation on HIF2-α (HIF2α): complete elimination
prolyl-hydroxylation of HIF2α (HIF2α): prevented
prolyl hydroxylation of GSK3β (GSK3β [5]): caused loss
tyrosine autophosphorylation of GSK3β (GSK3β [5]): caused loss
GSK3β-mediated phosphorylation of GST-c-MYC (GSK3β [6]): abolished
prolyl hydroxylation of DYRK4 (DYRK4): caused loss
tyrosine autophosphorylation of DYRK4 (DYRK4): caused loss
proline hydroxylation on DYRK1 kinase (DYRK1B [2]): complete elimination
prolyl hydroxylation of DYRK1B (DYRK1B [2]): caused loss
tyrosine autophosphorylation of DYRK1B (DYRK1B [2]): caused loss
